Source: US20100263095A1, “METHOD FOR GROWING SUGARCANE” (SYNGENTA CROP PROTECTION, INC., priority 2007, published 2010)

Columns and labels:
[1] = tested on: sugar cane Variety RB 86-7515; assay: Greenhouse pot test: effect of formulated fipronil on vigour; assay type: in vivo; settings: result in words
Description: Greenhouse test with sugarcane buds growing in pots were conducted to study the effect of fipronil equivalent to an application rate of 200 g. ha^−1 on “vigour”, evaluating tillers, plant height, leaf width and culm diameter on sugar cane Variety RB 86-7515.
Twenty 1 L pots were filled with 16 L of clay soil, 1.6 L of sand and 8 g of nitrogen, 28 g of phosphorus (P2O5) and 16 g of potassium (K2O). Six carretels of 4 cm length with one bud were planted in each pot (treatments 1, 2, 4 and 5). Two stalks with three buds were planted in each control pot (treatments 3 and 6) to simulate conventional planting. A layer of 3 cm of soil was used to cover the carretels. The carretels of treatments 1 and 2 were treated with 200 g ai·ha^−1 of fipronil, by dipping the carretels in the slurry for 3 min, based on the uptake capacity of carretels. The stalks were treated simulating a furrow application at 100 L·ha^−1 of slurry. Experimental design adopted was randomized complete block with four replications. The pots were maintained with adequate moisture during the test. Evaluations of: plant height, leaf width, culm diameter and number of tillers were done at 20, 30 and 42 days after planting.

[2] = tested on: sugarcane Variety RB 86-7515; assay: Greenhouse pot test: effect of formulated thiamethoxam on vigour; assay type: in vivo, sugar cane; settings: result in words
Description: This trial was conducted on Variety RB 86-7515.

[3] = tested on: sugar cane Variety RB 86-7515; assay: Greenhouse pot test: effect of formulated abamectin on vigour; assay type: in vivo; settings: Carretel with one bud; 100 g ai/ha; 42 days after planting
Description: Greenhouse test with sugarcane buds growing in pots were conducted to study the effect of formulated abamectin regarding “vigour”, tillers, plant height, leaf width and culm diameter on sugar cane Variety RB 86-7515.
Twenty 1 L pots were filled with 16 L of clay soil, 1.6 L of sand and 8 g of nitrogen, 28 g of phosphorus (P2O5) and 16 g of potassium (K2O). Six carretels of 4 cm length with only one bud were planted in each pot (treatments 1, 2, 4 and 5). Two stalks with three buds were planted in each control pot (treatments 3 and 6) to simulate conventional planting. A layer of 3 cm of soil was used to cover the carretels. The carretels of treatments 1, 2 were treated with 200 ml/ha of abamectin, by dipping the carretels in the slurry for 3 min, based on the uptake capacity of carretels. The stalks were treated simulating a furrow application at 100 L·ha^−1 of slurry. Experimental design adopted was randomized complete block with four replications. The pots were maintained with adequate moisture during the test. Evaluations of: plant height, leaf width, culm diameter and number of tillers were done at 20, 30 and 42 days after planting.

N#Cc1nn(-c2c(Cl)cc(C(F)(F)F)cc2Cl)c(N)c1[S+]([O-])C(F)(F)F (centres unmarked) [Fipronil, fipronil]
height of the resultant plants in comparison with the control [1]: decreased the height

CN1COCN(Cc2cnc(Cl)s2)/C1=N\[N+](=O)[O-] [Thiamethoxam, thiamethoxam]
number of tillers in comparison with the corresponding controls ([2]; carretels): increased number of tillers | plant height in comparison with the corresponding controls ([2]; carretels): reduced plant height | “quality” compared with the other treatments ([2]; overall assessment, not apparent from the listed parameters): increase in “quality” greater than the other treatments

abamectin
Tillers [3]: 14 number
